# Measured values from patent US9073863B2, “Cyanoquinoline compounds having activity in correcting mutant-CFTR processing and increasing ion transport and uses thereof” (The Regents of the University of California, priority 2011, dated 2015).
# Columns and labels:
# ΔF508-CFTR [1] = target: T1, ΔF508-CFTR (Homo sapiens, UniProt P13569, DEL508-508); assay: Corrector assay, YFP fluorescence plate reader iodide influx in ΔF508-CFTR expressing FRT cells; assay type: cell-based; settings: 18-24 h with compound at 37° C., forskolin 20 μM + genistein 50 μM
# T1 construct: expressed in transfected cells; host or cells: Fischer rat thyroid (FRT) epithelial cells, stably transfected
# Description: (§1) Screening procedures. Screening of compounds for activity was carried out using a Beckman Coulter platform equipped with FLUOstar fluorescence plate readers (Optima; BMG Labtech) with dual syringe pumps and 500±10 nm excitation and 535±15 nm emission filters (Chroma Corp.). For the corrector assay, FRT cells were grown at 37° C./5% CO2 for 18-24 h and then incubated for 18-24 h with 100 μL of medium containing test compounds (25 μM final concentration). At the time of the assay, cells were washed with PBS and then incubated for 10 min with PBS containing forskolin (20 μM) and genistein (50 μM). For the potentiator assay, FRT cells were grown at 37° C./5% CO2 for 18-24 h and then for 18-24 h at 27° C. At the time of the assay, cells were washed with PBS and then incubated for 10 min with PBS (50 μL) containing forskolin (20 μM) and test compound (0-25 μM final concentration). For both the corrector and potentiator assays, each well was assayed individually for I^− influx by recording fluorescence continuously (200 ms per point) for 2 s (baseline) and then for 12 s after rapid addition of 165 μL PBS in which 137 mM Cl^− was replaced by I^−. Initial I^− influx rate was computed by fitting the final 11.5 seconds of the data to an exponential for extrapolation of initial slope, which was normalized for background-subtracted initial fluorescence. All compound plates contained negative controls and positive controls (10 μM Corr-4a for corrector assay; 50 μM genistein for potentiator assay).
# (§2) Screening of about 110,000 small molecules was done to identify new ΔF508-CFTR corrector scaffolds having high correction efficiency and/or having independent potentiator activity. […] FRT cells co-expressing human ΔF508-CFTR and a halide-sensing YFP were incubated with test compounds at 37° C. (corrector assay) or 27° C. (potentiator assay). ΔF508-CFTR function was assayed in a plate reader from YFP fluorescence quenching in response to iodide addition in the presence of forskolin (20 μM) plus genistein (50 μM) for corrector assay, or forskolin (20 μM) alone for potentiator assay. As shown in FIG. 1A (left), primary screening for corrector activity was done using a cell-based fluorescence assay of iodide influx in which FRT cells expressing ΔF508-CFTR and an iodide-sensitive YFP were incubated with test compounds at 10 μM for 18-24 h prior to assay. Iodide influx was measured by addition of extracellular iodide in the presence of a potentiator (50 μM genistein) and cAMP agonist (20 μM forskolin). Compound efficacy and potency (from concentration-dependence studies) in the corrector assay were compared to reference bithiazole Corr-4a (10 μM) and to low-temperature rescued cells. Active compounds were counter-screened for potentiator activity (FIG. 1A, right) in which iodide influx was measured in the ΔF508-CFTR expressing FRT cells after low-temperature rescue and in the presence of 20 μM forskolin.
# (§3) Screening procedures. Plate reader activity assay was carried out using a Beckman Coulter platform containing a robotic arm, CO2 incubator containing microplate carousel, plate-washer, liquid handling work station, bar code reader, de-lidding station, plate sealer, and FLUOstar fluorescence plate readers (Optima; BMG LABTECH Gmbh), equipped with dual syringe pumps and 500±10 nm excitation and 535±15 nm emission filters (Chroma Corp.). For the corrector assay, ΔF508-CFTR-expressing FRT cells were grown at 37° C. (90% humidity; 5% CO2) for 18-24 h and then incubated for 18-24 h with 100 μL of medium containing test compounds (0-25 μM final concentration). At the time of the assay, cells were washed with PBS and then incubated for 10 min with PBS containing forskolin (20 μM) and genistein (50 μM). For the potentiator assay, FRT cells were grown at 37° C. (90% humidity; 5% CO2) for 18-24 h and then for 18-24 h at 27° C. […]
# ΔF508-CFTR [2] = target: T1, ΔF508-CFTR; assay: Potentiator assay, YFP fluorescence plate reader iodide influx in low-temperature rescued ΔF508-CFTR expressing FRT cells; assay type: cell-based; settings: forskolin 20 μM + test compound
# Description: as §1, §2, §3
# [3] = Table VIII, FRT cells, I− influx
# [4] = Table VIII, FRT cells 18-24 h at 27° C., I− influx
# [5] = Table IX, additional experiments
# [6] = Table IX, additional experiments, 18-24 h at 27° C.
# T1 sequence (P13569 with tags, fused parts or gaps DEL508-508): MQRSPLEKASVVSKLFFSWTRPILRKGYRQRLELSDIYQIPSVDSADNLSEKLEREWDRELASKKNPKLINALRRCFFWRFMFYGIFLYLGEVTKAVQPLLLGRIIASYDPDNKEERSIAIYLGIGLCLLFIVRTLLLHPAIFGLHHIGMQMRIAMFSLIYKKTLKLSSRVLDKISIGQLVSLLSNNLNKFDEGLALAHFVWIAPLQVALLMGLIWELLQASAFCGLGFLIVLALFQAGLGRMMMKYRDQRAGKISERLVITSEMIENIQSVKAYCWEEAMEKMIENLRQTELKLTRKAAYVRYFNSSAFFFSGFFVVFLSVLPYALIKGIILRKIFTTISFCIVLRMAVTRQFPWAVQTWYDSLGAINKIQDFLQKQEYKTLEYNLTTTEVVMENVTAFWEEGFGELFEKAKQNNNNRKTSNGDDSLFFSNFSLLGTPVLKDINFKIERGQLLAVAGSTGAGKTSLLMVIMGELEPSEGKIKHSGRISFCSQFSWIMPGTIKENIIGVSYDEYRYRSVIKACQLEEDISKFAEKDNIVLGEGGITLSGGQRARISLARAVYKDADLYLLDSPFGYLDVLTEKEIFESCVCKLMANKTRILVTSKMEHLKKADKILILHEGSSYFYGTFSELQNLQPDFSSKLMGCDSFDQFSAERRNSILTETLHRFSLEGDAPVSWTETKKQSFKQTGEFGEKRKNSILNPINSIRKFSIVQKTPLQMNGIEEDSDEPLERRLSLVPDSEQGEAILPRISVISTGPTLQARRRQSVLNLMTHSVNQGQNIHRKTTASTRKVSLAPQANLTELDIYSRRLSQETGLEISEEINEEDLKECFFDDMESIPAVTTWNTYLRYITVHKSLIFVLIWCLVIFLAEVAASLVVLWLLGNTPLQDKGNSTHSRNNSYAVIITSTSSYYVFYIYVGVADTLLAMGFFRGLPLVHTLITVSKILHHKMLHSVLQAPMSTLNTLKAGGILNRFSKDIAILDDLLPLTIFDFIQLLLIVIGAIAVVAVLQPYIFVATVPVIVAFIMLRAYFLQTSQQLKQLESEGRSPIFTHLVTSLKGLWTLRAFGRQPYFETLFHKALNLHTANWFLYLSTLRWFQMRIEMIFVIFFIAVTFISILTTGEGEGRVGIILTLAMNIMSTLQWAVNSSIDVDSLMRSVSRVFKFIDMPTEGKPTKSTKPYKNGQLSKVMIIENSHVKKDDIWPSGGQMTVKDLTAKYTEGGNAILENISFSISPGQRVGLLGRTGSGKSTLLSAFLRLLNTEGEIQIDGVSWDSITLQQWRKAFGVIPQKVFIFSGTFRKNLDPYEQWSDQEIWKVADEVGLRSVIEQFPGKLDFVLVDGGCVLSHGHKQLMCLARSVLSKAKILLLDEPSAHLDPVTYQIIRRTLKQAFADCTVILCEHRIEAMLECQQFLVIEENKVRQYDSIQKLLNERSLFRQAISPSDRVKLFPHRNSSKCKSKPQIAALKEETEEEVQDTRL
Structure (SMILES),Corrector Vmax (ΔF508-CFTR [1]; [3]),Potentiator Vmax (ΔF508-CFTR [2]; [4]),Corrector Vmax (ΔF508-CFTR [1]; [5]),EC50 (ΔF508-CFTR [1]; [5]),EC50 (ΔF508-CFTR [2]; [6]),Potentiator Vmax (ΔF508-CFTR [2]; [6]),other results
COc1ccc(C(=O)NCCNc2nc3cc(C)cc(C)c3cc2C#N)cc1 [drawing 148],172 µM/s,181 µM/s,,,,,EC50 (ΔF508-CFTR [1]; [3]): 3 µM; EC50 (ΔF508-CFTR [2]; [4]): 4.1 µM
Cc1cc(C)c2cc(C#N)c(NCCNC(=O)c3ccccn3)nc2c1 [drawing 149],inactive,80 µM/s,,,,,
Cc1cc(C)c2cc(C#N)c(NCCNC(=O)c3cccnc3)nc2c1 [drawing 150],223 µM/s,152 µM/s,,,,,EC50 (ΔF508-CFTR [1]; [3]): 15.2 µM; EC50 (ΔF508-CFTR [2]; [4]): 11 µM
Cc1cc(C)c2cc(C#N)c(NCCNC(=O)c3ccncc3)nc2c1 [drawing 151],172 µM/s,220 µM/s,,,,,EC50 (ΔF508-CFTR [1]; [3]): 9.1 µM
COc1ccccc1C(=O)N1CCN(c2nc3cc(C)cc(C)c3cc2C#N)CC1 [drawing 152],inactive,129 µM/s,,,,,
COc1cccc(C(=O)N2CCN(c3nc4cc(C)cc(C)c4cc3C#N)CC2)c1 [drawing 153],inactive,200 µM/s,,,,,EC50 (ΔF508-CFTR [2]; [4]): 1.2 µM
COc1ccc(C(=O)N2CCN(c3nc4cc(C)cc(C)c4cc3C#N)CC2)cc1 [drawing 154],inactive,281 µM/s,,,,,EC50 (ΔF508-CFTR [2]; [4]): 1.3 µM
Cc1cc(C)c2cc(C#N)c(N3CCN(C(=O)c4ccccn4)CC3)nc2c1 [drawing 155],inactive,102 µM/s,,,,,
COc1cccc(C(=O)NCCCNc2nc3cc(C)cc(C)c3cc2C#N)c1 [drawing 159],134 µM/s,147 µM/s,,,,,EC50 (ΔF508-CFTR [2]; [4]): 4.6 µM
COc1ccc(C(=O)NCCCNc2nc3cc(C)cc(C)c3cc2C#N)cc1 [drawing 160],112 µM/s,231 µM/s,,,,,EC50 (ΔF508-CFTR [2]; [4]): 5 µM
Cc1cc(C)c2cc(C#N)c(NCCCNC(=O)c3cccnc3)nc2c1 [drawing 162],inactive,115 µM/s,,,,,Corrector EC50 (ΔF508-CFTR [1]; [3]): inactive; EC50 (ΔF508-CFTR [2]; [4]): 16 µM
COc1cccc(C(=O)NCCNc2nc3cc(C)cc(C)c3cc2C#N)c1 [drawing 164],,,300 µM/s,2.2 ± 0.3 µM,5.9 ± 0.5 µM,216 µM/s,
COc1ccccc1C(=O)NCCNc1nc2cc(C)cc(C)c2cc1C#N [drawing 165],,,114 µM/s,11 ± 0.9 µM,,154 µM/s,
COc1ccc(C(=O)NCCNc2nc3cc(C)cc(C)c3cc2C#N)cc1 [drawing 166],,,172 µM/s,,,181 µM/s,
Cc1cc(C)c2cc(C#N)c(NCCNC(=O)c3ccccn3)nc2c1 [drawing 167],,,inactive,,1.2 ± 0.4 µM,80 µM/s,Corrector EC50 (ΔF508-CFTR [1]; [5]): inactive
Cc1cc(C)c2cc(C#N)c(NCCNC(=O)c3cccnc3)nc2c1 [drawing 168],,,151 µM/s,2.7 ± 0.6 µM,13.2 ± 0.6 µM,242 µM/s,
Cc1cc(C)c2cc(C#N)c(NCCNC(=O)c3ccncc3)nc2c1 [drawing 169],,,176 µM/s,7.3 ± 0.8 µM,10 ± 3.1 µM,220 µM/s,
COc1ccccc1C(=O)N1CCN(c2nc3cc(C)cc(C)c3cc2C#N)CC1 [drawing 170],,,inactive,,1 ± 0.3 µM,129 µM/s,Corrector EC50 (ΔF508-CFTR [1]; [5]): inactive
COc1cccc(C(=O)N2CCN(c3nc4cc(C)cc(C)c4cc3C#N)CC2)c1 [drawing 171],,,inactive,,,200 µM/s,Corrector EC50 (ΔF508-CFTR [1]; [5]): inactive
COc1ccc(C(=O)N2CCN(c3nc4cc(C)cc(C)c4cc3C#N)CC2)cc1 [drawing 172],,,inactive,,,281 µM/s,Corrector EC50 (ΔF508-CFTR [1]; [5]): inactive
Cc1cc(C)c2cc(C#N)c(N3CCN(C(=O)c4ccccn4)CC3)nc2c1 [drawing 173],,,inactive,,7.4 ± 0.3 µM,102 µM/s,Corrector EC50 (ΔF508-CFTR [1]; [5]): inactive
Cc1cc(C)c2cc(C#N)c(N3CCN(C(=O)c4cccnc4)CC3)nc2c1 [drawing 174],,,inactive,,,inactive,Corrector EC50 (ΔF508-CFTR [1]; [5]): inactive; Potentiator EC50 (ΔF508-CFTR [2]; [6]): inactive
COc1cccc(C(=O)NCCCNc2nc3cc(C)cc(C)c3cc2C#N)c1 [drawing 177],,,134 µM/s,,,147 µM/s,
COc1ccc(C(=O)NCCCNc2nc3cc(C)cc(C)c3cc2C#N)cc1 [drawing 178],,,112 µM/s,4.3 ± 0.2 µM,,231 µM/s,
Cc1cc(C)c2cc(C#N)c(NCCCNC(=O)c3ccccn3)nc2c1 [drawing 179],,,inactive,,,233 µM/s,
Cc1cc(C)c2cc(C#N)c(NCCCNC(=O)c3cccnc3)nc2c1 [drawing 180],,,140 µM/s,3 ± 0.5 µM,,115 µM/s,
Cc1cc(C)c2cc(C#N)c(NCCCNC(=O)c3ccncc3)nc2c1 [drawing 181],,,61 µM/s,8.2 ± 0.4 µM,13.2 ± 0.4 µM,53 µM/s,
COc1ccc(C(=O)NCCNc2nc3cc(C)cc(C)c3cc2C#N)cc1OC [drawing 185],,,380 µM/s,1.5 ± 0.4 µM,48 ± 5 µM,216 µM/s,
COc1ccc(C(=O)NCCNc2nc3cc(C)cc(C)c3cc2C#N)nc1 [drawing 186],,,88 µM/s,2.7 ± 0.5 µM,3.4 ± 0.5 µM,70 µM/s,
